Data on six molecules can be found in patent publication US20250160332A1, “HERBICIDAL COMBINATIONS AND A METHOD FOR CONTROLLING UNDESIRED VEGETATION” (UPL MAURITIUS LIMITED, priority 2022, published 2025).

One assay deals with Amaranthus hybridus. Put plainly: Post-emergence herbicidal activity, efficacy on Amaranthus hybridus (Colby method). Format: in vivo. The procedure: (§1) The following products were used for evaluating the weed control efficacy of present herbicidal combinations.
(§2) Methodology: Trials were carried out to evaluate the efficacy of the combinations comprising L-glufosinate ammonium and additional herbicides on Amaranthus genus weeds.
(§3) The soil used was sandy clay loam-sand: 68.0%; silt: 8.0%; clay: 24.0%.
(§4) All treatments were in 3 replications per treatment with a spray volume of 150 L/ha.
(§5) Efficacy Evaluation: The expected efficacy of the combination comprising L-glufosinate ammonium and additional herbicides was calculated using the well-established Colby method.
In the Colby method, the expected (or predicted) response of a combination of herbicides is calculated by taking the product of the observed response for each individual component of the combination when applied alone, divided by 100, and subtracting this value from the sum of the observed response for each component when applied alone. An unexpected enhancement in efficacy of the combination is then determined by comparing the observed response of the combination to the expected (or predicted) response as calculated from the observed response of each individual component alone. If the observed response of the combination is greater than the expected (or predicted) response, or stated conversely, if the difference between the observed and expected response is greater than zero, then the combination is said to be synergistic or unexpectedly effective (Colby, S. R., Weeds, 1967(15), p. 20-22). The Colby method requires only a single dose of each herbicide applied alone and the mixture of both doses. The formula used to calculate the expected efficacy (EE) which was compared with the observed efficacy (OE) to determine the efficacy of the present disclosure is explained herein:
The expected efficacy for a combination of two active ingredients is as follows:
The expected efficacy for a combination of three active ingredients is as follows:
[formula] • wherein, • A=Observed efficacy of active ingredient A at the same concentration as used in the mixture. • B=Observed efficacy of the active ingredient B at the same concentration as used in the mixture. • C=Observed efficacy of the active ingredient C at the same concentration as used in the mixture.
Experiment was conducted to assess the efficacy of herbicidal combination comprising L-glufosinate ammonium (glufosinate-P-ammonium) and saflufenacil to control the weed, Amaranthus hybridus.
The percentage efficacy was calculated after 3 days of applications (DAA). The target weed was Amaranthus hybridus, and the concentration of the herbicide and the results are recorded in Table 7.
Experiment was conducted to assess the efficacy of herbicidal combination comprising L-glufosinate ammonium, saflufenacil and triclopyr to control the weed Amaranthus hybridus.
The percentage efficacy was calculated after 3 DAA. The target weed was Amaranthus hybridus, and the concentration of the herbicide and the results are recorded in Table 8.
Experiment was conducted to assess the efficacy of herbicidal combination comprising L-glufosinate ammonium, saflufenacil and 2,4-D Choline to control the weed, Amaranthus hybridus.
The percentage efficacy was calculated after 3 DAA. The target weed was Amaranthus hybridus, and the concentration of the herbicide and the results are recorded in Table 9.
Experiment was conducted to assess the efficacy of herbicidal combination comprising L-glufosinate ammonium and quizalofop-ethyl to control the weed, Amaranthus hybridus.
The percentage efficacy was calculated after 3 DAA and 14 DAA. The target weed was Amaranthus hybridus, and the concentration of the herbicide and the results are recorded in Table 10.
Experiment was conducted to assess the efficacy of herbicidal combination comprising L-glufosinate ammonium and quizalofop-p-tefuryl to control the weed, Amaranthus hybridus
The percentage efficacy was calculated after 3 DAA and 14 DAA.

For a further assay, the system named is Amaranthus viridis. The assay is described as follows: Post-emergence herbicidal activity, efficacy on Amaranthus viridis (Colby method). It is filed as in vivo. As to the method:
as §1, §2, §3, §4, §5
In the Colby method, the expected (or predicted) response of a combination of herbicides is calculated by taking the product of the observed response for each individual component of the combination when applied alone, divided by 100, and subtracting this value from the sum of the observed response for each component when applied alone. An unexpected enhancement in efficacy of the combination is then determined by comparing the observed response of the combination to the expected (or predicted) response as calculated from the observed response of each individual component alone. […]
The percentage efficacy was calculated after 3 DAA and 7 DAA. The target weed was Amaranthus viridis, and the concentration of the herbicide and the results are recorded in Table 12. […]

`C[N+](C)(C)CCO.O=C([O-])COc1ccc(Cl)cc1Cl` [2,4-D Choline]: the “Observed efficacy (%) of 2,4-D Choline (228 g a.i./ha)” value with Amaranthus hybridus (Table 9, 3 DAA, 228 g a.i./ha) was 95%.

For `CS(=O)(=O)c1ccc(C(=O)C2C(=O)CCCC2=O)c([N+](=O)[O-])c1` [Mesotrione], the “Observed efficacy (%) of Mesotrione (100 g a.i./ha)” value in the assay with Amaranthus viridis (Table 12, 3 DAA) stood at 10%; with Amaranthus viridis (Table 12, 7 DAA) it was 30%.

With `CC(C)N(C)S(=O)(=O)NC(=O)c1cc(-n2c(=O)cc(C(F)(F)F)n(C)c2=O)c(F)cc1Cl` [Saflufenacil], the “Observed efficacy (%) of Saflufenacil (30 g a.i./ha)” value in the assay on Amaranthus hybridus (Table 7, 3 DAA) was 50%; in the assay with Amaranthus hybridus (Table 8, 3 DAA) it was 50%; in the assay on Amaranthus hybridus (Table 9, 3 DAA) it was 50%.

Consider `O=C(O)COc1nc(Cl)c(Cl)cc1Cl` [Triclopyr], for which, in the assay with Amaranthus hybridus (Table 8, 3 DAA, 228 g a.i./ha), the “Observed efficacy (%) of Triclopyr (228 g a.i./ha)” value is reported as 95%.

As for `CCOC(=O)C(C)Oc1ccc(Oc2cnc3cc(Cl)ccc3n2)cc1` (centres unmarked) [quizalofop-ethyl, Quizalofop-ethyl], the “Observed efficacy (%) of quizalofop-ethyl (25 g a.i./ha)” value in the assay on Amaranthus hybridus (Table 10, 3 DAA) was determined as 0%; with Amaranthus hybridus (Table 10, 14 DAA) it was 0%.

Turning to `C[C@@H](Oc1ccc(Oc2cnc3cc(Cl)ccc3n2)cc1)C(=O)OCC1CCCO1` (some centres unmarked) [quizalofop-p-tefuryl, Quizalofop-p-tefuryl], the “Observed efficacy (%) of quizalofop-p-tefuryl (25 g a.i./ha)” value is 0% in the assay on Amaranthus hybridus (Table 11, 3 DAA) and 0% with Amaranthus hybridus (Table 11, 14 DAA).
